Key:
[1] = tested on: rats; assay: Maximal electroshock seizure threshold test (MEST) in rats; assay type: in vivo, rat; settings: for seizure threshold: rats
Method: (§1) Significant differences between drug-treated animals and controls were assessed according to Litchfield and Wilcoxon, Pharmacol Exp Ther. 1949; 96(1):99-113

[2] = tested on: mice; assay: Maximal electroshock seizure threshold test (MEST) in mice; assay type: in vivo, mouse; settings: corneal electrodes
Method: as §1

[3] = biological target: T1, hKv7.2/hKv7.3 (Homo sapiens, UniProt O43525+O43526); assay: Automated whole cell patch-clamp of stable HEK-hKv7.2/hKv7.3 cell line; assay type: cell-based; settings: functional test of the cell line
T1 construct: P2A self-cleaving linker (remnant after ribosomal skipping); expressed in transfected cells; vector pcDNA5/FRT/TO
Method: (§2) A synthesized cDNA fragment encoding human Kv7.3 and human Kv7.2 separated by a P2A sequence was inserted into the pcDNA5/FRT/TO vector using the BamHI and XhoI restriction sites. The construct was then transfected into HEK Flp-In 293 cells using Lipofectamine2000. The transfected cells were grown for 48 hours in DMEM containing 10% (v/v) FBS and 1% PenStrep and subsequently maintained under selection in DMEM containing 10% (v/v) FBS, 1% PenStrep and 200 ug/mL Hygromycin B at 37° C. in a humidified atmosphere of 5% CO2.

[4] = biological target: T1, hKv7.2/hKv7.3; assay: Thallium influx assay for potassium channel activation; assay type: cell-based; settings: HEK-hKv7.2/hKv7.3 cells; AUC readout normalized to a reference compound
Method: as §2
The thallium influx assay for potassium channel activation was performed analogously to a published procedure (C. D. Weaver, et al., J Biomol Screen 2004, 9, 671-677) using the FLIPR Potassium Assay kit (Molecular Devices). HEK-hKv7.2/hKv7.3 cells were plated onto 96-well, black-walled, clear-bottomed culture plates (Corning, Acton, MA, USA) at a density of 80,000 cells/well (100 μl/well) if the cells were assayed the following day, or 40,000 cells/well (100 μl/well) if the cells were assayed two days after seeding.
On the assay day, the medium was removed after which 50 uL/well of test compound diluted to 2× final concentration in HBSS containing 20 mM HEPES, and 50 uL/well of 2× dye load buffer were added. The cells were then incubated for 60 min at room temperature in the dark. Chloride-free stimulation buffer containing Tl^+ and K^+ at 5× final concentration (5× concentration: 5 mM in both cases) and test compound at 1× final concentration, were prepared during the incubation. The cells were then assayed in a FDSS7000EX Functional Drug Screening System (Hamamatsu). Following 60 sec of baseline fluorescence signal reading at 0.1 Hz, and 10 sec at 1 Hz, 25 uL/well of stimulation buffer were added and the fluorescence continuously measured for 50 sec at 1 Hz followed, by 4 min at 0.1 Hz. Compound effect was quantified using AUC as readout and normalized to a reference compound, which was included on each plate.

Row | SMILES | effect on Kv7-current [3] | EC50 [4] | also measured
1 | C[C@H](NC(=O)CC1(O)CC(F)(F)C1)c1cccc(OC(F)(F)F)c1 [Example 5, (S)-2-(3,3-difluoro-1-hydroxycyclobutyl)-N-(1-(3-(trifluoromethoxy)phenyl)ethyl) acetamide] |  |  | seizure threshold CC50 (current producing tonic hind limb extensor seizures in 50% of animals) ([1]; rat, acute peroral administration 30 min prior to test, all doses tested 0.03-1 mg/kg, relative to vehicle): significantly increased; seizure threshold ([1]; pretreatment with a single acute administration): significant increase; seizure threshold ([1]; repeated administration (once daily, 15 days)): significant increase; current required to induce an electroconvulsion, i.e. seizure threshold [2]: dose-dependent significant increase
2 | O=C1c2ccccc2C(Cc2ccncc2)(Cc2ccncc2)c2ccccc21 [XE991] | sensitive |  | 
3 | C[C@H](NC(=O)C[C@H](O)C1CC(F)(F)C1)c1cccc(OC(F)(F)F)c1 [Example 11a, 3-(3,3-Difluorocyclobutyl)-3-hydroxy-N—((S)-1-(3-(trifluoromethoxy)phenyl)ethyl) propanamide] |  | 1500 nM | 
4 | CCOC(=O)Nc1ccc(NCc2ccc(F)cc2)cc1N [Retigabine, N-(2-amino-4-(4-fluorobenzylamino)-phenyl) carbamic acid ethyl ester] | potentiated |  | 
5 | C[C@H](NC(=O)CC(C)(O)C(F)(F)C(F)F)c1cccc(OC(F)(F)F)c1 (single isomer, unassigned) [Example 10a] |  | 650 nM | 
6 | C[C@H](NC(=O)C[C@@](C)(O)CC(F)(F)F)c1cccc(OC(F)(F)F)c1 (single isomer, unassigned) [Example 13a] |  | 1900 nM | 

— US12508239B2, “Alcohol derivatives as Kv7 potassium channel openers for use in epilepsy or seizures” (H. Lundbeck A/S, priority 2019, dated 2025)
